Source: patent publication US20080242870A1 (priority 2006, published 2008)
Read-outs that look alike come from different tables or passages of the source.

Legend:
[1] = not given; remark: listed apart in the source
[2] = Fluorescence quenching by 2,4-dinitrotoluene (Stern-Volmer); conditions: concentrated and dilute solutions in toluene
[3] = cited from earlier work
[4] = Sodium sensing: quantum yield vs sodium perchlorate concentration; conditions: in acetonitrile
Protocol: The benzo 15-crown-5 anthracene diimide derivative was synthesized because crown ethers are known for their ability to bind with metals. […] The extinction coefficient, ∈, was determined to be 16,000 M^−1 cm^−1 and the quantum yield, Φ, 0.02 (both were measured in acetonitrile). The emission spectrum for this compound was more complicated than the others. An excimer effect was evident in higher concentration samples and was more prominent in non-polar solvents. The excimer complicated the lifetime in toluene with a short component for the excited dimer state.

[5] = depending on the solvent
Protocol: (§1) Luminescence lifetimes were measured with an IBH time-correlated single photon counting (TCSPC) system equipped with an IBH Model TBX-04 Photon Detection Module. The excitation source for the TCSPC measurements was a pulsed LED (IBH NanoLED, 455 nm, 1.3 ns pulse duration or 403 nm, <200 ps pulse duration) with a repetition rate of 1 MHz. All data was analyzed by iterative reconvolution of the decay profile (10,000 counts at the peak channel) with the instrument response function using software provided by the instrument manufacturer.

[6] = Emission spectrum and quantum yield of perylene diimide (Example 5); assay type: physicochemical
[7] = Fluorescence lifetime by TCSPC (Example 5); assay type: physicochemical; conditions: room temperature, CH2Cl2
Protocol: as §1

[8] = Absorption spectrum of perylene diimide (Example 5); assay type: physicochemical; conditions: CH2Cl2
Solubility = conditions: polar organic solvents

N,N′-Bis(p-triphenyl amine)-1,5-bis(phenyl)anthracene-2,3,6,7-tetracarboxyl diimide
extinction coefficient, ∈ (in toluene): 22,000 M^−1 cm^−1 | quantum yield, Φ ([1]; in toluene): 0.09 | 2,4-dinitrotoluene sensing (quenching) [2]: effective 2,4-dinitrotoluene (DNT) sensor

F[P-](F)(F)(F)(F)F.F[P-](F)(F)(F)(F)F.[Ru+2].c1ccc(-c2ccccn2)nc1.c1ccc(-c2ccccn2)nc1.c1ccc(-c2ccccn2)nc1 [[Ru(bpy)3](PF6)2]
Φr of standard ([3]; in CH3CN): 0.062

N,N′-Bis(benzo 15-crown-5)-1,5-bis(phenyl)anthracene-2,3,6,7-tetracarboxyl diimide
extinction coefficient, ∈ (in acetonitrile): 16,000 M^−1 cm^−1 | quantum yield, Φ ([1]; in acetonitrile): 0.02 | sodium sensing [4]: effective sensor of sodium perchlorate

c1ccc2cc3ccccc3cc2c1 [anthracene]
Φr of standard ([3]; in EtOH): 0.27

N,N′-Bis(p-(tert-butyl)phenyl)-1,5-bis(phenyl)anthracene-2,3,6,7-tetracarboxyl diimide
extinction coefficient, ∈ (in toluene): 8,500 M^−1 cm^−1 | lifetime (single exponential) [5]: around 5.5 ns | quantum yield, Φ ([1]; in toluene): 0.29

CCCCCCCCn1c(=O)c2c(-c3ccccc3)c3cccc4c3c(c3cccc5c(-c6ccccc6)c6c(=O)n(CCCCCCCC)c(=O)c6c4c53)c2c1=O [Compound 59, N,N′-Bis(octyl)-3,9-bis(phenyl)-perylene-1,2,7,8-tetracarboxyl diimide]
quantum yield ([6]; measured against fluorescein): 0.67 | Stokes' shift ([6]; room temperature, CH2Cl2): 26 nm | fluorescence λmax ([6]; room temperature, CH2Cl2, 425 nm excit.): 517 nm | single exponential lifetime [7]: 5.01 ns | extinction coefficient ([8]; at absorption λmax): 29,000 M^−1 cm^−1 | absorption λmax ([8]; room temperature): ~491 nm | solubility (Solubility): soluble in polar organic solvents
